Laboratory results from ChEMBL document CHEMBL3885861, “Open TG-GATES”.

Species: Rattus norvegicus
Test: Open TG-GATES - Regimen: Single
Assay type: toxicity, organism-based, Sprague-Dawley
Design: regimen Single, gender Male, age 6 weeks
Conditions: in vivo, po, 1000 mg/kg, route gavage, dose level High; for APTT / Bas / Eos / Fbg / Hb / Ht / Lym / MCH / MCHC / MCV / Mono / Neu / PT / Plat / RBC / Ret / WBC: tissue Blood; for KIDNEY_L / KIDNEY_R / KIDNEY_TOTAL: tissue Kidney; for LIVER: tissue Liver; for A/G / ALP / ALT / AST / BUN / CRE / Ca / Cl / DBIL / GLC / IP / K / LDH / Na / PL / RALB / TBIL / TC / TG / TP / gamma-GTP: tissue Plasma

C[C@H]1O[C@H](O[C@H]2[C@H](O)[C@@H](O)[C@@H](O[C@H]3[C@H](O)[C@@H](O)C(O)O[C@@H]3CO)O[C@@H]2CO)[C@H](O)[C@@H](O)[C@@H]1N[C@H]1C=C(CO)[C@@H](O)[C@H](O)[C@H]1O (some centres not stated) [ACARBOSE]
TERMINAL_BW (3 h): 197.2 g | APTT (3 h): 17.5 s | Bas (3 h): 0% | Eos (3 h): 1% | Fbg (3 h): 289.2 mg/dL | Hb (3 h): 13.7 g/dL | Ht (3 h): 42% | Lym (3 h): 82.4% | MCH (3 h): 20.7 pg | MCHC (3 h): 32.7% | MCV (3 h): 63.3 fL | Mono (3 h): 2.2% | Neu (3 h): 13.8% | PT (3 h): 13.2 s | Plat (3 h): 116 x10_4/uL | RBC (3 h): 664 x10_4/ul | Ret (3 h): 8% | WBC (3 h): 88.8 x10_2/uL | KIDNEY_L (3 h): 0.9 g | KIDNEY_R (3 h): 0.9 g | KIDNEY_TOTAL (3 h): 1.7 g | LIVER (3 h): 8.2 g | A/G (3 h): 0.9 | ALP (3 h): 1484.6 IU/L | ALT (3 h): 38 IU/L | AST (3 h): 73.6 IU/L | BUN (3 h): 10.6 mg/dL | CRE (3 h): 0.2 mg/dL | Ca (3 h): 11 mg/dL | Cl (3 h): 104.4 meq/L | DBIL (3 h): 0.004 mg/dL | GLC (3 h): 166.2 mg/dL | IP (3 h): 10 mg/dL | K (3 h): 4 meq/L | LDH (3 h): 62.6 IU/L | Na (3 h): 141.4 meq/L | PL (3 h): 131.4 mg/dL | RALB (3 h): 2.5 g/dL | TBIL (3 h): 0.054 mg/dL | TC (3 h): 71.4 mg/dL | TG (3 h): 45.2 mg/dL | TP (3 h): 5.2 g/dL | gamma-GTP (3 h): 1 IU/L | TERMINAL_BW (6 h): 198.5 g | APTT (6 h): 17.1 s | Bas (6 h): 0% | Eos (6 h): 1% | Fbg (6 h): 266.4 mg/dL | Hb (6 h): 13.3 g/dL | Ht (6 h): 41.1% | Lym (6 h): 74.8% | MCH (6 h): 20.9 pg | MCHC (6 h): 32.5% | MCV (6 h): 64.2 fL | Mono (6 h): 3% | Neu (6 h): 20.2% | PT (6 h): 13.5 s | Plat (6 h): 118.8 x10_4/uL | RBC (6 h): 640.4 x10_4/ul | Ret (6 h): 8.2% | WBC (6 h): 81.7 x10_2/uL | KIDNEY_L (6 h): 0.9 g | KIDNEY_R (6 h): 0.9 g | KIDNEY_TOTAL (6 h): 1.8 g | LIVER (6 h): 7.8 g | A/G (6 h): 0.9 | ALP (6 h): 1359.2 IU/L | ALT (6 h): 34.4 IU/L | AST (6 h): 73.8 IU/L | BUN (6 h): 9.4 mg/dL | CRE (6 h): 0.2 mg/dL | Ca (6 h): 10.6 mg/dL | Cl (6 h): 104 meq/L | DBIL (6 h): 0.004 mg/dL | GLC (6 h): 167.2 mg/dL | IP (6 h): 10 mg/dL | K (6 h): 4 meq/L | LDH (6 h): 61.6 IU/L | Na (6 h): 140.4 meq/L | PL (6 h): 128.8 mg/dL | RALB (6 h): 2.4 g/dL | TBIL (6 h): 0.066 mg/dL | TC (6 h): 72.2 mg/dL | TG (6 h): 35.4 mg/dL | TP (6 h): 5 g/dL | gamma-GTP (6 h): 1 IU/L | TERMINAL_BW (9 h): 195.6 g | APTT (9 h): 17 s | Bas (9 h): 0.4% | Eos (9 h): 0.8% | Fbg (9 h): 306 mg/dL | Hb (9 h): 13.6 g/dL | Ht (9 h): 41.9% | Lym (9 h): 78.2% | MCH (9 h): 20.8 pg | MCHC (9 h): 32.3% | MCV (9 h): 64.2 fL | Mono (9 h): 2.2% | Neu (9 h): 18% | PT (9 h): 13.4 s | Plat (9 h): 117.8 x10_4/uL | RBC (9 h): 654.4 x10_4/ul | Ret (9 h): 7.9% | WBC (9 h): 87.1 x10_2/uL | KIDNEY_L (9 h): 0.9 g | KIDNEY_R (9 h): 0.9 g | KIDNEY_TOTAL (9 h): 1.8 g | LIVER (9 h): 7.4 g | A/G (9 h): 0.9 | ALP (9 h): 1457.4 IU/L | ALT (9 h): 36 IU/L | AST (9 h): 75.8 IU/L | BUN (9 h): 8.8 mg/dL | CRE (9 h): 0.2 mg/dL | Ca (9 h): 10.6 mg/dL | Cl (9 h): 105.2 meq/L | DBIL (9 h): 0.002 mg/dL | GLC (9 h): 168.8 mg/dL | IP (9 h): 10.1 mg/dL | K (9 h): 3.8 meq/L | LDH (9 h): 67.2 IU/L | Na (9 h): 142 meq/L | PL (9 h): 119 mg/dL | RALB (9 h): 2.5 g/dL | TBIL (9 h): 0.064 mg/dL | TC (9 h): 70.8 mg/dL | TG (9 h): 24 mg/dL | TP (9 h): 5.3 g/dL | gamma-GTP (9 h): 1.2 IU/L | TERMINAL_BW (24 h): 212.7 g | APTT (24 h): 18.7 s | Bas (24 h): 0% | Eos (24 h): 1.2% | Fbg (24 h): 291.4 mg/dL | Hb (24 h): 13.4 g/dL | Ht (24 h): 40.9% | Lym (24 h): 72.2% | MCH (24 h): 20.9 pg | MCHC (24 h): 32.6% | MCV (24 h): 64.1 fL | Mono (24 h): 2.8% | Neu (24 h): 23% | PT (24 h): 13 s | Plat (24 h): 118.2 x10_4/uL | RBC (24 h): 638.4 x10_4/ul | Ret (24 h): 7.9% | WBC (24 h): 103.5 x10_2/uL | KIDNEY_L (24 h): 0.9 g | KIDNEY_R (24 h): 0.9 g | KIDNEY_TOTAL (24 h): 1.8 g | LIVER (24 h): 9.8 g | A/G (24 h): 0.9 | ALP (24 h): 1691 IU/L | ALT (24 h): 44.4 IU/L | AST (24 h): 75.4 IU/L | BUN (24 h): 14.6 mg/dL | CRE (24 h): 0.2 mg/dL | Ca (24 h): 10.7 mg/dL | Cl (24 h): 105.6 meq/L | DBIL (24 h): 0.01 mg/dL | GLC (24 h): 173.4 mg/dL | IP (24 h): 7.9 mg/dL | K (24 h): 4 meq/L | LDH (24 h): 66.2 IU/L | Na (24 h): 142.8 meq/L | PL (24 h): 132.6 mg/dL | RALB (24 h): 2.6 g/dL | TBIL (24 h): 0.06 mg/dL | TC (24 h): 72.2 mg/dL | TG (24 h): 70.8 mg/dL | TP (24 h): 5.5 g/dL | gamma-GTP (24 h): 1 IU/L
